{"source": "patent US20090105245A1", "about": "“METHODS FOR TREATING MACULAR EDEMA AND OCULAR ANGIOGENESIS USING AN ANTI-INFLAMMATORY AGENT AND A RECEPTOR TYROSINE KINASE INHIBITOR” (priority 2006, published 2009)", "assay_type_in_all_cases": "in vivo", "key": {"[1]": {"tested_on": "existing laser-induced choroidal neovascularization (CNV) in the mouse", "assay": "Mouse laser-induced CNV, regression of existing CNV, intravitreal injection at 7 days post-laser", "conditions": "single intravitreal injection, mouse (FIG. 4)", "protocol": "Methods. CNV was generated by laser-induced rupture of Bruch's membrane. Briefly, 4 to 5 week old male C57BL/6J mice were anesthetized using intraperitoneal administration of ketamine hydrochloride (100 mg/kg) and xylazine (5 mg/kg) and the pupils of both eyes dilated with topical ocular instillation of 1% tropicamide and 2.5% Mydfin®. One drop of topical cellulose (Gonioscopic®) was used to lubricate the cornea. A hand-held cover slip was applied to the cornea and used as a contact lens to aid visualization of the fundus. Three to four retinal burns were placed in randomly assigned eye (right or left eye for each mouse) using the Alcon 532 nm EyeLite laser with a slit lamp delivery system. The laser burns were used to generate a rupture in Bruch's membrane, which was indicated opthalmoscopically by the formation of a bubble under the retina. Only mice with laser burns that produced three bubbles per eye were included in the study. Burns were typically placed at the 3, 6, 9 or 12 o'clock positions in the posterior pole of the retina, avoiding the branch retinal arteries and veins. […]\nMETHODS: CNV was generated by laser-induced rupture of Bruch's membrane as described above in Example 3. […] Choroidal flat mounts were analyzed as described above in Example 3."}, "[2]": {"tested_on": "laser-induced choroidal neovascularization (CNV) in the mouse", "assay": "Mouse laser-induced choroidal neovascularization (CNV), prevention, intravitreal injection", "protocol": "Methods. CNV was generated by laser-induced rupture of Bruch's membrane. Briefly, 4 to 5 week old male C57BL/6J mice were anesthetized using intraperitoneal administration of ketamine hydrochloride (100 mg/kg) and xylazine (5 mg/kg) and the pupils of both eyes dilated with topical ocular instillation of 1% tropicamide and 2.5% Mydfin®. One drop of topical cellulose (Gonioscopic®) was used to lubricate the cornea. A hand-held cover slip was applied to the cornea and used as a contact lens to aid visualization of the fundus. Three to four retinal burns were placed in randomly assigned eye (right or left eye for each mouse) using the Alcon 532 nm EyeLite laser with a slit lamp delivery system. The laser burns were used to generate a rupture in Bruch's membrane, which was indicated opthalmoscopically by the formation of a bubble under the retina. Only mice with laser burns that produced three bubbles per eye were included in the study. Burns were typically placed at the 3, 6, 9 or 12 o'clock positions in the posterior pole of the retina, avoiding the branch retinal arteries and veins.\nEach mouse was randomly assigned into one of the following treatment groups: noninjected controls, sham-injected controls, vehicle-injected mice, or one of three RTKi-injected groups. […]"}, "[3]": {"tested_on": "preretinal neovascularization (NV) in the rat model of oxygen-induced retinopathy", "assay": "Rat model of oxygen-induced retinopathy (OIR), single intravitreal injection", "from_the_text": "METHODS: Pregnant Sprague-Dawley rats were received at 14 days gestation and subsequently gave birth on Day 22±1 of gestation. Immediately following parturition, pups were pooled and randomized into separate litters (n=17 pups/litter), placed into separate shoebox cages inside oxygen delivery chamber, and subjected to an oxygen-exposure profile from Day 0-14 postpartum. Litters were then placed into room air from Day 14/0 through Day 14/6 (days 14-20 postpartum). Additionally on Day 14/0, each pup was randomly assigned as an oxygen-exposed control or into various treatment groups. For those randomized into an injection treatment group: one eye received a 5 μl intravitreal injection of 0.1%, 0.3%, 0.6%, or 1% RTKi and the contralateral eye received a 5 μl intravitreal injection of vehicle. At Day 14/6 (20 days postpartum), all animals in both studies were euthanized.\nImmediately following euthanasia, retinas from all rat pups were harvested, fixed in 10% neutral buffered formalin for 24 hours, subjected to ADPase staining, and fixed onto slides as whole mounts. Digital images were acquired from each retinal flat mount that was adequately prepared. Computerized image analysis was used to obtain a NV clockhour score from each readable sample. Each clockhour out of 12 total per retina was assessed for the presence or absence of preretinal NV. Statistical comparisons using median scores for NV clockhours from each treatment group were utilized in nonparametric analyses. Each noninjected pup represented one NV score by taking the average value of both eyes and was used in comparisons against each dosage group. Because the pups were randomly assigned and no difference was observed between oxygen-exposed control pups from all litters, the NV scores were combined for all treatment groups. P≦0.05 was considered statistically significant."}, "[4]": {"tested_on": "laser-induced choroidal neovascularization (CNV) in the mouse", "assay": "Mouse laser-induced CNV, prevention paradigm, oral gavage", "conditions": "for inhibition of CNV: oral, prevention paradigm"}}, "data": [{"smiles": "Cc1ccc(F)c(NC(=O)Nc2ccc(-c3cccc4[nH]nc(N)c34)cc2)c1", "note": "[Compound 86, N-[4-[3-amino-1H-indazol-4-yl]phenyl]-N′-(2-fluoro-5-methylphenyl)urea]", "values": [{"measurement": "regression of existing laser-induced CNV", "setting": "[1]", "result": "induces regression of existing laser-induced choroidal neovascularization (CNV)"}, {"measurement": "CNV vs vehicle injected eyes", "setting": "[2]; 0.3% RTKi, 5 ul intravitreal (P=0.082)", "result": "marginal statistical difference"}, {"measurement": "inhibition of laser-induced CNV", "setting": "[2]; single intravitreal injection, mouse (FIG. 3)", "result": "inhibits laser-induced choroidal neovascularization (CNV)"}, {"measurement": "efficacy against preretinal NV", "setting": "[3]; 0.1% treated eyes", "result": "Efficacy was not observed"}, {"measurement": "inhibition of preretinal NV vs vehicle-injected and control noninjected eyes", "setting": "[3]; 0.3-1% RTKi", "result": "significant inhibition of preretinal NV"}, {"measurement": "inhibition of preretinal neovascularization (NV)", "setting": "[3]; single intravitreal injection, rat OIR (FIG. 1)", "result": "inhibits preretinal neovascularization (NV)"}, {"measurement": "inhibition of CNV", "setting": "[4]; 3 mg/kg/day", "result": "no significant inhibition"}, {"measurement": "inhibition of CNV", "setting": "[4]; 20 mg/kg/d", "result": "complete inhibition of CNV"}, {"measurement": "inhibition of laser-induced CNV", "setting": "[4]; oral gavage, mouse (FIG. 6)", "result": "inhibits laser-induced choroidal neovascularization (CNV)"}]}]}
